Assay results published in the supplement of paper PMC10307832.

Experiments:
Assay in all cases: relative viability (nuclei count vs DMSO), 5 days (fraction); higher = more cells survive
BX 795 + Phenformin = compound: O=C(NCCCNc1nc(Nc2cccc(NC(=O)N3CCCC3)c2)ncc1I)c1cccs1 [BX 795] + N=C(N)NC(=N)NCCc1ccccc1 [Phenformin] (partner 250 µM)
How it was run: (§1)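 Each reported value is a median over duplicate plates. It expresses relative viability: treated-well nuclei count divided by vehicle-well nuclei count. Lung cancer cell lines in 1536-well plates were dosed by pin tool a day after seeding, alone with one drug or with a fixed anchor-drug dose plus five library-drug doses (not always all listed) in √10 steps, and nuclei were counted after 5 days.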

BX 795 + Pemetrexed = compound: O=C(NCCCNc1nc(Nc2cccc(NC(=O)N3CCCC3)c2)ncc1I)c1cccs1 [BX 795] + Nc1nc2[nH]cc(CCc3ccc(C(=O)N[C@@H](CCC(=O)O)C(=O)O)cc3)c2c(=O)[nH]1 [Pemetrexed] (partner 0.2 µM)
How it was run: as §1

BX 795 + AZD7762 = compound: O=C(NCCCNc1nc(Nc2cccc(NC(=O)N3CCCC3)c2)ncc1I)c1cccs1 [BX 795] + NC(=O)Nc1cc(-c2cccc(F)c2)sc1C(=O)N[C@H]1CCCNC1 [AZD7762] (partner 0.2 µM)
How it was run: as §1

BX 795 + Pictilisib = compound: O=C(NCCCNc1nc(Nc2cccc(NC(=O)N3CCCC3)c2)ncc1I)c1cccs1 [BX 795] + CS(=O)(=O)N1CCN(Cc2cc3nc(-c4cccc5[nH]ncc45)nc(N4CCOCC4)c3s2)CC1 [Pictilisib] (partner 1 µM)
How it was run: as §1

BX 795 + Trametinib = compound: O=C(NCCCNc1nc(Nc2cccc(NC(=O)N3CCCC3)c2)ncc1I)c1cccs1 [BX 795] + CC(=O)Nc1cccc(-n2c(=O)n(C3CC3)c(=O)c3c(Nc4ccc(I)cc4F)n(C)c(=O)c(C)c32)c1 [Trametinib] (partner 0.02 µM)
How it was run: as §1

Cell Line | relative viability (BX 795 + Phenformin; first compound 0.04 µM) | relative viability (BX 795 + Phenformin; first compound 0.1265 µM) | relative viability (BX 795 + Phenformin; first compound 0.4 µM) | relative viability (BX 795 + Phenformin; first compound 1.265 µM) | relative viability (BX 795 + Pemetrexed; first compound 0.04 µM) | relative viability (BX 795 + Pemetrexed; first compound 0.1265 µM) | relative viability (BX 795 + Pemetrexed; first compound 0.4 µM) | relative viability (BX 795 + Pemetrexed; first compound 1.265 µM) | relative viability (BX 795 + AZD7762; first compound 0.04 µM) | relative viability (BX 795 + AZD7762; first compound 0.1265 µM) | relative viability (BX 795 + AZD7762; first compound 0.4 µM) | relative viability (BX 795 + AZD7762; first compound 1.265 µM) | relative viability (BX 795 + Pictilisib; first compound 0.04 µM) | relative viability (BX 795 + Pictilisib; first compound 0.1265 µM) | relative viability (BX 795 + Pictilisib; first compound 0.4 µM) | relative viability (BX 795 + Pictilisib; first compound 1.265 µM) | relative viability (BX 795 + Trametinib; first compound 0.04 µM) | relative viability (BX 795 + Trametinib; first compound 0.1265 µM) | relative viability (BX 795 + Trametinib; first compound 0.4 µM) | relative viability (BX 795 + Trametinib; first compound 1.265 µM)
HCC-366 | 0.622 | 0.629 | 0.602 | 0.583 | 0.104 | 0.168 | 0.0915 | 0.149 | 0.228 | 0.227 | 0.19 | 0.306 | 0.145 | 0.137 | 0.104 | 0.0928 | 0.391 | 0.338 | 0.421 | 0.32
HCC-827 | 0.448 | 0.372 | 0.414 | 0.387 | 0.266 | 0.288 | 0.245 | 0.241 | 0.206 | 0.224 | 0.211 | 0.221 | 1.13 | 1.02 | 1.12 | 0.961 | 0.54 | 0.539 | 0.575 | 0.551
HOP-62 | 0.711 | 0.744 | 0.789 | 0.667 | 0.303 | 0.284 | 0.296 | 0.306 | 0.602 | 0.715 | 0.672 | 0.528 | 0.803 | 0.586 | 0.682 | 0.66 | 0.374 | 0.369 | 0.365 | 0.317
IA-LM |  |  |  |  |  |  |  |  |  |  |  |  | 0.367 | 0.311 | 0.531 | 0.332 |  |  |  | 
LC-2-ad | 0.585 | 0.5 | 0.48 | 0.41 | 0.267 | 0.288 | 0.25 | 0.263 | 0.806 | 0.808 | 0.795 | 0.858 | 0.471 | 0.387 | 0.333 | 0.202 | 0.886 | 0.95 | 0.646 | 0.662
LCLC-97TM1 | 0.495 | 0.444 | 0.457 | 0.348 | 0.152 | 0.184 | 0.177 | 0.184 | 0.334 | 0.352 | 0.239 | 0.346 | 0.186 | 0.163 | 0.206 | 0.137 | 0.203 | 0.19 | 0.179 | 0.166
NCI-H520 | 0.699 | 0.658 | 0.4 | 0.233 | 0.393 | 0.7 | 0.341 | 0.335 |  |  |  |  | 0.303 | 0.321 | 0.279 | 0.28 | 0.568 | 0.723 | 0.593 | 0.362
NCI-H661 | 0.261 | 0.245 | 0.274 | 0.238 | 0.855 | 0.98 | 0.521 | 0.784 |  |  |  |  | 0.461 | 0.484 | 0.39 | 0.441 | 0.62 | 0.583 | 0.55 | 0.564
NCI-H727 | 0.571 | 0.566 | 0.444 | 0.617 |  |  |  |  | 0.614 | 0.535 | 0.671 | 0.531 | 0.498 | 0.643 | 0.31 | 0.315 | 0.377 | 0.38 | 0.36 | 0.4
NCI-H1650 | 0.484 | 0.417 | 0.393 | 0.239 | 0.392 | 0.431 | 0.243 | 0.416 |  |  |  |  | 0.698 | 0.576 | 0.517 | 0.498 | 0.6 | 0.493 | 0.551 | 0.504
NCI-H2009 | 0.492 | 0.447 | 0.447 | 0.305 | 0.973 | 0.978 | 1.04 | 0.907 |  |  |  |  | 0.777 | 0.744 | 0.823 | 0.626 | 0.264 | 0.227 | 0.274 | 0.179
NCI-H2023 | 0.426 | 0.378 | 0.305 | 0.195 | 0.257 | 0.221 | 0.139 | 0.182 |  |  |  |  | 0.152 | 0.239 | 0.188 | 0.197 | 0.797 | 0.468 | 0.456 | 0.233
NCI-H2228 | 0.325 | 0.469 | 0.272 | 0.15 | 0.329 | 0.331 | 0.268 | 0.281 |  |  |  |  | 0.517 | 0.439 | 0.377 | 0.239 | 0.689 | 0.713 | 0.389 | 0.349
NCI-H2342 | 0.643 | 0.515 | 0.538 | 0.544 | 0.782 | 0.718 | 0.758 | 0.715 | 0.591 | 0.538 | 0.481 | 0.399 |  |  |  |  | 0.796 | 0.774 | 0.892 | 0.766
SK-LU-1 | 0.495 | 0.608 |  | 0.316 | 0.895 | 0.988 | 0.646 | 0.823 |  |  |  |  | 0.543 | 0.691 | 0.416 | 0.511 | 0.473 | 0.674 | 0.396 | 0.469
SK-MES-1 | 0.691 | 0.628 | 0.592 | 0.419 | 0.923 | 0.854 | 0.612 | 0.649 |  |  |  |  | 0.372 | 0.32 | 0.322 | 0.382 | 0.574 | 0.46 | 0.519 | 0.396
SW 900 | 0.478 | 0.627 | 0.613 | 0.693 | 0.488 |  | 0.469 | 0.455 | 0.55 |  | 0.619 | 0.633 |  |  |  |  | 0.819 |  | 0.99 | 0.706
SW 1573 | 0.396 | 0.351 | 0.34 | 0.18 | 0.748 | 0.81 | 0.836 | 0.516 |  |  |  |  | 0.551 | 0.463 | 0.608 | 0.381 | 0.725 | 0.642 | 0.753 | 0.232
UMC-11 | 0.291 | 0.322 | 0.253 | 0.19 | 0.826 | 0.749 | 0.736 | 0.453 |  |  |  |  | 0.726 | 0.86 | 0.683 | 0.534 | 0.685 | 0.665 | 0.547 | 0.531
